Legend:
[1] = molecular target: Peptidyl-prolyl cis-trans isomerase FKBP1A (Homo sapiens, UniProt P62942); test: Binding affinity to FKBP12 by fluorescence polarization assay
[2] = molecular target: T1, Peptidyl-prolyl cis-trans isomerase FKBP5 (Homo sapiens, UniProt Q13451); test: Binding affinity to FKBP51 FK1 domain by fluorescence polarization assay
T1 sequence (Q13451 whole entry): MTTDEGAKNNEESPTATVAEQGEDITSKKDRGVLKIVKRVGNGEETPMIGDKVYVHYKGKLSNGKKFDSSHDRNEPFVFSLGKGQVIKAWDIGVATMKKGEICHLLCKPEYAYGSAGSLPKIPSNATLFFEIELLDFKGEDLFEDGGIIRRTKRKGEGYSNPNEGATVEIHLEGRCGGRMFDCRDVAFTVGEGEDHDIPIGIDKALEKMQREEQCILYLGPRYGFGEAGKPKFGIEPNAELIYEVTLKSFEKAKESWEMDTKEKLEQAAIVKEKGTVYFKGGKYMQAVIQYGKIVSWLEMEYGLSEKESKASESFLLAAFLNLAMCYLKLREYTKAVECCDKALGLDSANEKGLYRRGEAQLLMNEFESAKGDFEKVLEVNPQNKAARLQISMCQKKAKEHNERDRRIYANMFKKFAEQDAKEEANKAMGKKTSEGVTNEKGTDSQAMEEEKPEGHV

[3] = molecular target: T2, Peptidyl-prolyl cis-trans isomerase FKBP4 (Homo sapiens, UniProt Q02790); test: Binding affinity to FKBP52 FK1 domain by fluorescence polarization assay
T2 sequence (Q02790 whole entry): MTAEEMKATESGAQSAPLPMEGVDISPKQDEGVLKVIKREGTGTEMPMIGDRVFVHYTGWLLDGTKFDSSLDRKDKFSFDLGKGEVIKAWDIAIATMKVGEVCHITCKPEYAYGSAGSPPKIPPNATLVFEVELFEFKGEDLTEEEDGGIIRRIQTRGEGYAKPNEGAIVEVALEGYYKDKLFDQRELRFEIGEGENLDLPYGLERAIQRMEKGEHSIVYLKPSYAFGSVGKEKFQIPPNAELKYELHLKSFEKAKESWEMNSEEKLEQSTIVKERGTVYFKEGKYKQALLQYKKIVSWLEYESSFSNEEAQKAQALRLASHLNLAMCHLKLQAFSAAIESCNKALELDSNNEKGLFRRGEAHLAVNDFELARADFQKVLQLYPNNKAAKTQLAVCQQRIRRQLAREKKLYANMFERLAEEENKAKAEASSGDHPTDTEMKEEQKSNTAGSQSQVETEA

Sequence of Peptidyl-prolyl cis-trans isomerase FKBP1A (P62942 whole entry, the tested form may be a part): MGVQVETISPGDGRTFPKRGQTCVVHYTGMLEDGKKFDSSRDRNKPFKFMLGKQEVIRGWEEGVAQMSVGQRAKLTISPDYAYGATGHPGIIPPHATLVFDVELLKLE

SMILES | IC50 [1] [µM] | IC50 [2] [µM] | IC50 [3] [µM]
COc1ccc(CC[C@@H](OC(=O)[C@@H]2CCCCN2C(=O)C(=O)[C@]2(O)CCCC[C@@H]2C)c2cccc(OCC(=O)O)c2)cc1OC (mixture of isomers) | 0.06 |  | 
CC[C@@H]1CCCC[C@@]1(O)C(=O)C(=O)N1CCCC[C@H]1C(=O)O[C@H](CCc1ccc(OC)c(OC)c1)c1cccc(OCCN2CCOCC2)c1 (mixture of isomers) | 0.47 |  | 
COc1ccc(CCOC(=O)[C@@H]2CCCCN2C(=O)C(=O)[C@]2(O)CCCC[C@H]2C)cc1OC (mixture of isomers) | 2.2 | > 100 | > 100
COc1ccc(CC[C@@H](OC(=O)[C@@H]2CCCCN2C(=O)C(=O)[C@]2(O)CCCC[C@H]2CO)c2cccc(OCC(=O)O)c2)cc1OC | 0.51 |  | 
COc1ccc(CC[C@@H](OC(=O)[C@@H]2CCCCN2C(=O)C(=O)[C@]2(O)CCCC[C@H]2C)c2cccc(OCC(=O)O)c2)cc1OC (mixture of isomers) | 0.06 |  | 
COc1ccc(CC[C@@H](OC(=O)[C@@H]2CCCCN2C(=O)C(=O)[C@]2(O)CCCC[C@H]2C)c2cccc(OCCN3CCOCC3)c2)cc1OC (mixture of isomers) | 0.06 |  | 
CC[C@@H]1CCCC[C@@]1(O)C(=O)C(=O)N1CCCC[C@H]1C(=O)OCCOc1ccc(OC)c(OC)c1 (mixture of isomers) | 2.78 | > 100 | > 100
CCC(C)(C)C(=O)C(=O)N1CCCC[C@H]1C(=O)OCCOc1ccc(OC)c(OC)c1 | 2.45 | > 100 | > 100
CCC(C)(C)C(=O)C(=O)N1CCC[C@H]1C(=O)OCCCc1cccnc1 [GPI-1046] | 1.24 | > 100 | > 100
COc1ccc(OCCOC(=O)[C@@H]2CCCCN2C(=O)C(=O)[C@]2(O)CCCC[C@H]2C)cc1OC (mixture of isomers) | 0.31 | 29.4 | 11.7
COc1ccc(CC[C@@H](OC(=O)[C@@H]2CCCCN2C(=O)C(=O)[C@@]2(O)CCCC[C@@H]2C)c2cccc(OCC(=O)O)c2)cc1OC | 0.05 |  | 
COc1ccc(CC[C@@H](OC(=O)[C@@H]2CCCCN2C(=O)C(=O)[C@]2(O)CCCC[C@@H]2C)c2cccc(OCC(=O)O)c2)cc1OC | 0.05 |  | 
CCC(C)(C)C(=O)C(=O)N1CCCC[C@H]1C(=O)O[C@H](CCc1ccc(OC)c(OC)c1)c1cccc(N)c1 |  | 3.8 | 1.07
CCC(C)(C)C(=O)C(=O)N1CCCC[C@H]1C(=O)OC | 17.1 | > 100 | > 100
CCC(C)(C)C(=O)C(=O)N1CC=CC[C@H]1C(=O)O[C@H](CCc1ccc(OC)c(OC)c1)c1cccc(OCC(=O)O)c1 | 0.55 |  | 

Results, then the molecule that gave them:

IC50 [1] [µM] | IC50 [2] [µM] | IC50 [3] [µM] | SMILES
> 100 | > 100 | > 100 | COc1cc(C(=O)C(=O)N(C)[C@@H](Cc2ccc(Cl)cc2)C(=O)N(Cc2ccccc2)C(CCc2ccncc2)CCc2ccncc2)cc(OC)c1OC [TIMCODAR]
0.017 | 8.52 | 7.37 | COc1cc(C(=O)C(=O)N2CCCC[C@H]2C(=O)OC(CCCc2cccnc2)CCCc2cccnc2)cc(OC)c1OC [BIRICODAR]
0.1 |  | 2.8 | CCC(C)(C)C(=O)C(=O)N1CCCC[C@H]1C(=O)O[C@H](CCc1ccc(OC)c(OC)c1)c1cccc(OCCN2CCOCC2)c1
1.29 | > 100 | > 100 | CCC(C)(C)C(=O)C(=O)N1CCSC[C@H]1C(=O)O[C@H](CCc1ccc(OC)c(OC)c1)c1cccc(OCC(=O)O)c1
0.06 |  |  | COc1ccc(CC[C@@H](OC(=O)[C@@H]2CCCCN2C(=O)C(=O)[C@]2(O)CCCC[C@H]2C)c2cccc(OCC(=O)O)c2)cc1OC
0.343 |  |  | CC[C@H]1CCCC[C@]1(O)C(=O)C(=O)N1CCCC[C@H]1C(=O)O[C@H](CCc1ccc(OC)c(OC)c1)c1cccc(OCC(=O)O)c1
0.13 |  |  | CC[C@@H]1CCCC[C@@]1(O)C(=O)C(=O)N1CCCC[C@H]1C(=O)O[C@H](CCc1ccc(OC)c(OC)c1)c1cccc(OCC(=O)O)c1
1.05 | 15.3 | 5.55 | CCC(C)(C)C(=O)C(=O)N1CCC[C@H]1C(=O)O[C@H](CCc1ccc(OC)c(OC)c1)c1cccc(OCCN2CCOCC2)c1
0.06 |  |  | COc1ccc(CC[C@@H](OC(=O)[C@@H]2CCCCN2C(=O)C(=O)[C@@]2(O)CCCC[C@H]2C)c2cccc(OCC(=O)O)c2)cc1OC
0.17 |  | 10.5 | CCC(C)(C)C(=O)C(=O)N1CCCC[C@H]1C(=O)O[C@H](CCc1ccc(OC)c(OC)c1)c1cccc(OCC(=O)O)c1
0.57 |  |  | CC[C@H]1CCCC[C@@]1(O)C(=O)C(=O)N1CCCC[C@H]1C(=O)O[C@H](CCc1ccc(OC)c(OC)c1)c1cccc(OCC(=O)O)c1 (mixture of isomers)
3.38 | > 100 | > 100 | CCC(C)(C)C(=O)C(=O)N1CCCC[C@H]1C(=O)NC(CCc1ccc(OC)c(OC)c1)c1cccc(OCC(=O)O)c1 (mixture of isomers)
0.32 |  |  | CC[C@@H]1CCCC[C@@]1(O)C(=O)C(=O)N1CCCC[C@H]1C(=O)O[C@H](CCc1ccc(OC)c(OC)c1)c1cccc(OCC(=O)O)c1 (mixture of isomers)
0.15 |  |  | COc1ccc(CC[C@@H](OC(=O)[C@@H]2CCCCN2C(=O)C(=O)c2cc(OC)c(OC)c(OC)c2)c2cccc(OCC(=O)O)c2)cc1OC
2.11 | > 150 | > 150 | CCC(C)(C)C(=O)C(=O)N1CCCC[C@H]1C(=O)OCCCc1cccnc1
0.8 |  |  | CCC(C)(C)C(=O)C(=O)N1CCC[C@H]1C(=O)O[C@H](CCc1ccc(OC)c(OC)c1)c1cccc(OCC(=O)O)c1

Source: ChEMBL document CHEMBL2057129, “Evaluation of synthetic FK506 analogues as ligands for the FK506-binding proteins 51 and 52” (J Med Chem, 2012)
